Measured values from PubChem BioAssay (NCI).
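Each compound was tested at five concentrations against cells in 96-well plates for 48 hours. Abbreviation: GI50, concentration required for 50% inhibition of growth. At the TGI there is no net growth.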

Columns and labels:
Test in all cases: NCI-60 cell line screen, 48 h
HT29 colon = tested on: HT29 colon
MALME-3M melanoma = tested on: MALME-3M melanoma
NCI-H460 lung = tested on: NCI-H460 lung
HCT-116 colon = tested on: HCT-116 colon
K-562 leukemia = tested on: K-562 leukemia
SN12C renal = tested on: SN12C renal
UO-31 renal = tested on: UO-31 renal
LOX IMVI melanoma = tested on: LOX IMVI melanoma
SR leukemia = tested on: SR leukemia
HCC-2998 colon = tested on: HCC-2998 colon

SMILES | GI50 (HT29 colon) [µM] | TGI (HT29 colon) [µM] | GI50 (MALME-3M melanoma) [µM] | TGI (MALME-3M melanoma) [µM] | GI50 (NCI-H460 lung) [µM] | TGI (NCI-H460 lung) [µM] | GI50 (HCT-116 colon) [µM] | TGI (HCT-116 colon) [µM] | GI50 (K-562 leukemia) [µM] | TGI (K-562 leukemia) [µM] | GI50 (SN12C renal) [µM] | TGI (SN12C renal) [µM] | GI50 (UO-31 renal) [µM] | TGI (UO-31 renal) [µM] | GI50 (LOX IMVI melanoma) [µM] | TGI (LOX IMVI melanoma) [µM] | GI50 (SR leukemia) [µM] | TGI (SR leukemia) [µM] | GI50 (HCC-2998 colon) [µM] | TGI (HCC-2998 colon) [µM]
COc1ccc(-c2ccc(C3CC(c4ccc(O)cc4)=NN3)o2)c([N+](=O)[O-])c1 (stereo not drawn) | 40.1 | 97.6 | 19.1 | 51.3 | 21.1 | 81.8 | 20.1 | > 100 | 13.9 | 36.3 | 30.8 | > 100 | 50.3 | > 100 |  |  |  |  |  | 
CN(C)/[N+]([O-])=N/Oc1cc(Nc2cccc(C(=O)O)c2)c([N+](=O)[O-])cc1[N+](=O)[O-] | > 100 | > 100 |  |  | > 100 | > 100 | 34.5 | > 100 | 61.6 | > 100 | > 100 | > 100 | > 100 | > 100 | 38.5 | > 100 | 43.9 | > 100 |  | 
O=S(=O)([O-])[O-].[OH3+].[OH3+].[OH3+].[Ru+2].c1ccccc1 | > 100 | > 100 | > 100 | > 100 | > 100 | > 100 | > 100 | > 100 | > 100 | > 100 | > 100 | > 100 | > 100 | > 100 |  |  |  |  | > 100 | > 100
Cn1ncc(=S)[nH]c1=S |  |  |  | > 100 |  | > 100 |  | > 100 |  | > 100 |  | > 100 |  | > 100 |  | > 100 |  |  |  | 
CCN(CC)CCCN(c1cc(OC)cc2nccnc12)S(=O)(=O)c1ccc(C)cc1 |  | > 100 |  | > 100 |  | > 100 |  |  |  | > 100 |  | > 100 |  | > 100 |  | > 100 |  | > 100 |  | > 100
O=C1NC(=O)C(C(=O)C(=O)Nc2ccc(Br)cc2)C(=O)N1 |  | > 100 |  | > 100 |  |  |  | > 100 |  | > 100 |  | > 100 |  | > 100 |  | > 100 |  | > 100 |  | > 100
O=C(Nc1ccc(-c2nc3cc4ccccc4cc3[nH]2)cc1)c1cccc(Br)c1 | 2.77 | 11.9 | 12.8 | 28.9 | 3.36 | 13 | 3.89 | > 100 |  |  | 8.67 | 34.9 | 17.6 | 36.1 | 6.85 | 20.1 | 2.34 | 8.66 | 31.1 | > 100
Oc1cccc2c1NC1=C(CCC/C1=C\c1ccccc1)C2 |  | > 100 |  | > 100 |  | > 100 |  | > 100 |  | > 100 |  |  |  | > 100 |  | > 100 |  | > 100 |  | > 100
CCN(CC)CCn1c(C(C)(C)C)nc2ccccc21 |  | > 100 |  | > 100 |  | > 100 |  | > 100 |  | > 100 |  | > 100 |  | > 100 |  |  |  | > 100 |  | > 100
Oc1ccc(C(c2ccccc2)(c2ccccc2)c2ccccc2)cc1 |  |  | 27.2 | 68.9 | 15.3 | 48.1 | 12.9 | 26.1 | 24.9 | 61.2 | 16.9 | 31.6 | 11.8 | 26.9 | 24.4 | > 100 | 25.4 | 56.9 | 12.7 | 25.7
Oc1ccc2ccccc2c1C=NCCCN=Cc1c(O)ccc2ccccc12 | 19.7 | 63.3 | 6.96 | 29.7 | 9.35 | > 100 | 10 | 31.4 |  |  |  |  | 8.4 | 52.4 | 6.89 | 19.4 |  |  |  | 
CCCCCCCCCCCCCS(=O)(=O)O |  | > 100 |  | > 100 |  | > 100 |  | > 100 |  |  |  | > 100 |  | > 100 |  | > 100 |  |  |  | > 100
CC1=C(C)C(=O)c2c(c(C(=O)c3ccccc3)c3nc4ccccc4n3c2C)C1=O | > 100 | > 100 |  |  | 63.3 | > 100 | 87.2 | > 100 | > 100 | > 100 | > 100 | > 100 | > 100 | > 100 | 69.9 | > 100 | > 100 | > 100 | > 100 | > 100
Cn1ccnc1C(=O)/C=C/c1ccc(CC(=O)Nc2ccc(Cl)cc2)cc1 | 0.889 | > 25 | 14.2 | > 25 | 1.58 | > 25 | 1.31 | > 25 |  |  | 3.04 | > 25 | 2.27 | > 25 | 1.07 | > 25 |  |  | 3.42 | > 25
Cc1ccc(NC(=O)c2[nH]c(=S)nc(N)c2-c2ccccc2C)cc1C |  | > 100 |  | > 100 |  | > 100 |  | > 100 |  | > 100 |  | > 100 |  | > 100 |  | > 100 |  |  |  | 
O=C(Nc1ccc(S(=O)(=O)Nc2nccs2)cc1)c1cccnc1Nc1cccc(Cl)c1 | 16.7 | 30.3 | 16.9 | 48.1 | 16 | 32.6 | 12.2 | 25.2 | 10.4 | 41.1 | 12.5 | 25.9 | 13.8 | 32.3 | 7.31 | 19.9 |  |  | 14.1 | 27.9
COc1ccc(CN2C(=O)/C(=C\c3cc(OC)c(OC)c(OC)c3)c3cc(OC)ccc32)cc1 | 2.19 | 4.45 | 3.82 | 34.1 | 1.91 | 3.83 | 1.63 | 3.05 | 3.13 | > 35.5 | 3.53 | > 39.4 | 2.67 | 10.7 | 1.35 | 2.67 |  |  | 2.05 | 3.85
